One data set can be described thus: in vitro. Type of data set: cell-based. The following applies: human. How it is done:
(§1) To assess the activity of compounds against HIV-1 strains having resistance to various ART drugs, assays were performed in the context of CEM-GXR cells. These cells express CD4, CXCR4, and coreceptor, CCR5 as well as an exogenous Tat-driven LTR-GFP expression cassette. Cultures were infected with different HIV-1 strains of interest, differing on their subtypes (A and B), and resistance to three major drug targets (reverse transcriptase, protease, and integrase). The culture contains serial dilutions of the molecule in the final concentrations from 0.156 to 5 μM for 833; 725 nM to 46.87 μM for 791; 1.95 to 62.5 μM for 892. Antiviral activity was evaluated in the assay by measuring inhibition of HIV-1 spread in a coculture of CEM-GXR cells containing 1% of HIV-1 infected (GFP positive) cells using flow cytometric analysis (GuavaSoft 2.2 software, Guava HT8, Millipore). To estimate the viable cell counts, the gate in a flow cytometer (Guava HT8) was set to cover 95% of the freshly passaged uninfected CEM-GXR cell or using ViaCount™. The same parameter was employed to gate viable cells in the inhibition assay and the number of gated cells was obtained by GuavaSoft 2.2 software. For assays using ViaCount™, sample acquisition and data analysis were performed with the selection of EasyFit analysis feature using the ViaCount™ software module.
Additional file 1: Figure S1. […] Cell viability was measured by an XTT assay. […] Cells were analyzed after 24 h incubation with the compounds at the indicated concentrations ranging between 0–47 μM (791), 0–5 μM (833), or 0–62.5 μM (892). Results are expressed as the percentage (%) of viable cells relative to DMSO treatment ±SEM of two independent experiments performed in triplicate. […] Images are cropped to show a representative field of view. b The dose range of the compounds which inhibit HIV-1 GagGFP expression in HeLa rtTA HIVGagGFP C7 cells was measured by mean fluorescence intensity and expressed relative to fluorescence intensity in DMSO-treated samples (N ≥ 3, *p ≤ 0.05, **p ≤ 0.01, and ***p ≤ 0.001). […]

The nature of data set [1]: Viable cell count by FSC/SSC gate, CEM-GXR. The following applies: human, CEM-GXR cells infected with a Clade B HIV-1 strain. Type of data set: cell-based. The method, then: as §1

Our source for the CC50 values is publication PMC5267425, “Identification of small molecule modulators of HIV-1 Tat and Rev protein accumulation” (Retrovirology, 2017).

On to `COc1ccc(C=NNC(=O)c2ccccc2O)cc1O` [Compound 892, 2-hydroxy-N′-(3-hydroxy-4-methoxybenzylidene)benzohydrazide], for which the CC50 at 24 h in the data set “in vitro” was 60 µM. In data set [1], this compound showed a CC50 of 31 µM.

In turn, `Cc1cc(NCc2cccnc2)n2ncc(-c3ccc(Cl)cc3)c2n1` [Compound 791, 3-(4-chlorophenyl)-5-methyl-N-(3-pyridinylmethyl)pyrazolo[1,5-a]pyrimidin-7-amine] had a 50% cytotoxic concentration (CC50) at 24 h in “in vitro” of 24 µM. Also, the CC50 in data set [1] is above 12 µM.

Consider `O=C(NC(=S)NNC(=O)c1ccccc1O)c1ccc(-c2ccccc2)cc1` [Compound 833, N-([2-(2-hydroxybenzoyl)hydrazino]carbonothioyl}-4-biphenylcarboxamide], for which the CC50 at 24 h in the data set “in vitro” is above 5 µM. In data set [1], this compound displayed a CC50 above 5 µM.
